Measurements from article PMC4147775, “Stimulation of Hepatic Apolipoprotein A-I Production by Novel Thieno-Triazolodiazepines: Roles of the Classical Benzodiazepine Receptor, PAF Receptor, and Bromodomain Binding” (Lipid insights, 2013).
Read-outs that look alike come from different tables or passages of the source.

How the values were obtained:
BRDT(1) = target: T1, BRDT(1) (Homo sapiens, UniProt Q58F21); assay: Protein stability shift assay (thermal shift), BRDT(1); assay type: binding; conditions: 10 μM ligand
T1 construct: the second as compared with the first bromodomain of these BRDs

BRD2(1) = target: T2, BRD2(1) (Homo sapiens, UniProt P25440); assay: Protein stability shift assay (thermal shift), BRD2(1); assay type: binding; conditions: 10 μM ligand
T2 construct: the second as compared with the first bromodomain of these BRDs
T2 sequence (P25440 74-180 limits assumed): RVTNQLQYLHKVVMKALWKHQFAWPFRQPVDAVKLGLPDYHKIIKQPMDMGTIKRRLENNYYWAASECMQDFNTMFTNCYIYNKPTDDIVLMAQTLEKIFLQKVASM

PCAF = target: T3, PCAF (Homo sapiens, UniProt Q92831); assay: Protein stability shift assay (thermal shift), PCAF; assay type: binding; conditions: 10 μM ligand
T3 construct: Thermal shift (Δtm^obs) of human bromodomains in the presence of 10 μM compound
T3 sequence (Q92831 723-827 limits assumed): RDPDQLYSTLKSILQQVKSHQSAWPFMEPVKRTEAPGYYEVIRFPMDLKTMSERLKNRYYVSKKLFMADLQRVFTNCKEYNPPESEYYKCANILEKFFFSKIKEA

BRD3(2) [1] = target: T4, BRD3(2) (Homo sapiens, UniProt Q15059); assay: Protein stability shift assay (thermal shift), BRD3(2); assay type: binding; design: the second as compared with the first bromodomain of these BRDs; conditions: 10 μM ligand
T4 sequence (Q15059 306-415 limits assumed): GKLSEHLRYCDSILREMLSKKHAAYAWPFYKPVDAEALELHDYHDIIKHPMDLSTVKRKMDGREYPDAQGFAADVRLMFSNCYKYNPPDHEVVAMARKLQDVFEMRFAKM

BRD4(2) = target: T5, BRD4(2) (Homo sapiens, UniProt O60885); assay: Protein stability shift assay (thermal shift), BRD4(2); assay type: binding; conditions: 10 μM ligand
T5 construct: the second as compared with the first bromodomain of these BRDs

BRD2(2) = target: T6, BRD2(2) (Homo sapiens, UniProt P25440); assay: Protein stability shift assay (thermal shift), BRD2(2); assay type: binding; conditions: 10 μM ligand
T6 construct: the second as compared with the first bromodomain of these BRDs
T6 sequence (P25440 344-453 limits assumed): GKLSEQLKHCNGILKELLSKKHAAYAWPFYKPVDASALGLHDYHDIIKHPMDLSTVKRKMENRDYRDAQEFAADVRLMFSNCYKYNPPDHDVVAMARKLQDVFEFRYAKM

CREBBP = target: T7, CREBBP (Homo sapiens, UniProt Q92793); assay: Protein stability shift assay (thermal shift), CREBBP; assay type: binding; conditions: 10 μM ligand
T7 construct: Thermal shift (Δtm^obs) of human bromodomains in the presence of 10 μM compound
T7 sequence (Q92793 1085-1192 limits assumed): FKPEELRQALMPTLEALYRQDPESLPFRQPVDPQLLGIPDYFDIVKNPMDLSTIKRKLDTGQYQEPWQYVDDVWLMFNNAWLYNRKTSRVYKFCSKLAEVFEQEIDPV

[2] = test system: apoA-I production by Hep-G2 cells; design: method as in PMID 20513599; conditions: HepG2 cells, 40 μM; cited from earlier work
BRDT(2) = target: T8, BRDT(2) (Homo sapiens, UniProt Q58F21); assay: Protein stability shift assay (thermal shift), BRDT(2); assay type: binding; conditions: 10 μM ligand
T8 construct: the second as compared with the first bromodomain of these BRDs

PB1(5) = target: T9, PB1(5) (Homo sapiens, UniProt Q86U86); assay: Protein stability shift assay (thermal shift), PB1(5); assay type: binding; conditions: 10 μM ligand
T9 construct: Thermal shift (Δtm^obs) of human bromodomains in the presence of 10 μM compound
T9 sequence (Q86U86 653-763 limits assumed): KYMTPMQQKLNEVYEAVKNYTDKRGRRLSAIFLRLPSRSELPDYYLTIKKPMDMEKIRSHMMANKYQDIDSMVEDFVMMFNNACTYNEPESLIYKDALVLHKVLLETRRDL

[3] = some of the participants; cited from earlier work
[4] = test system: fibrosarcoma cells (HT1080); assay: Cytotoxicity: mitochondrial membrane potential (TMRM)
BRD3(1) = target: T10, BRD3(1) (Homo sapiens, UniProt Q15059); assay: Protein stability shift assay (thermal shift), BRD3(1); assay type: binding; conditions: 10 μM ligand
T10 construct: the second as compared with the first bromodomain of these BRDs
T10 sequence (Q15059 34-140 limits assumed): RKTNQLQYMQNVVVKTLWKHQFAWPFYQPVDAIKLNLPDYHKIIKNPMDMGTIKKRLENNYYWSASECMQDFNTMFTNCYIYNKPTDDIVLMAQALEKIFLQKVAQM

[5] = test system: apoA-I production by primary human hepatocytes; assay: apoA-I production by primary human hepatocytes (ELISA); assay type: cell-based; conditions: cultured human hepatocytes
BAZ2B = target: T11, BAZ2B (Homo sapiens, UniProt Q9UIF8); assay: Protein stability shift assay (thermal shift), BAZ2B; assay type: binding; conditions: 10 μM ligand
T11 construct: Thermal shift (Δtm^obs) of human bromodomains in the presence of 10 μM compound
T11 sequence (Q9UIF8 2060-2164 limits assumed): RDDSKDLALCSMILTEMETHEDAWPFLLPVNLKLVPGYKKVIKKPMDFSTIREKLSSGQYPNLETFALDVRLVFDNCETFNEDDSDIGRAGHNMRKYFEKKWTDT

BRD4(1) [6] = target: T12, BRD4(1) (Homo sapiens, UniProt O60885); assay: Protein stability shift assay (thermal shift), BRD4(1); assay type: binding; design: the second as compared with the first bromodomain of these BRDs; conditions: 10 μM ligand
[7] = Cytotoxicity: ATP level (Cell Titer Glo); assay type: cell-based, human; conditions: 100 μM, 72 hours, result in words
[8] = target: T13, human recombinant PAF receptor (Homo sapiens, UniProt P25105); assay: Binding to PAF receptor, 3H-C16-PAF, CHO cells; conditions: cells expressing the human PAF receptor, result in words (Figure 3B)
T13 construct: expressed in transfected cells; host or cells: CHO cells
T13 sequence (P25105 whole entry): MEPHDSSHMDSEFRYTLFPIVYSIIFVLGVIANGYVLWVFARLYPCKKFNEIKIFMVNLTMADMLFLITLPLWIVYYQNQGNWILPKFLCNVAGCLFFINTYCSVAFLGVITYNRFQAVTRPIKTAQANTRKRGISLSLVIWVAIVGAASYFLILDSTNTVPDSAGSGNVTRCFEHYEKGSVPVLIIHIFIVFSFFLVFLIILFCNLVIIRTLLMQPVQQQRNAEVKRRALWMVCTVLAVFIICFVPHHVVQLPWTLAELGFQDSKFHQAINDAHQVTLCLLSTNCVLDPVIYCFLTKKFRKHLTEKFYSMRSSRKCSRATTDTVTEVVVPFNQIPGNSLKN

BRD4(1) [9] = target: T12, BRD4(1); assay: Isothermal titration calorimetry, BRD4(1); assay type: binding; design: 2 μM for the first bromodomain in BRD4 and 0.5 μM for the second bromodomain in BRD3; conditions: ITC
central BZD receptor = assay: Binding to central BZD receptor, 3H-flunitrazepam, rat cerebral cortex membranes; conditions: rat brain membranes, result in words (Figure 3A)
recombinant BRD3 domains = assay: Bromodomain inhibition assay (Alphascreen), acetylated histone H4 peptide displacement, BRD3; assay type: biochemical; conditions: domains 1 and 2, result in words (Figure 4)
BRD3(2) [10] = target: T4, BRD3(2); assay: Isothermal titration calorimetry, BRD3(2); assay type: binding; design: 2 μM for the first bromodomain in BRD4 and 0.5 μM for the second bromodomain in BRD3; conditions: ITC
recombinant BRD4 domains = assay: Bromodomain inhibition assay (Alphascreen), acetylated histone H4 peptide displacement, BRD4; assay type: biochemical; conditions: domains 1 and 2, result in words (Figure 4)
[11] = Metabolic stability in human hepatocytes; assay type: in vitro ADME; conditions: cryopreserved human hepatocytes, donor 2, 10 μM, read-out: stability in human hepatocytes (% remaining after 120 min)

SMILES	Thermal shift (ΔTm obs) BRDT(1) (BRDT(1))	Thermal shift (ΔTm obs) BRD2(1) (BRD2(1))	Thermal shift (ΔTm obs) PCAF (PCAF)	Thermal shift (ΔTm obs) BRD3(2) (BRD3(2) [1])	Thermal shift (ΔTm obs) BRD4(2) (BRD4(2))	Thermal shift (ΔTm obs) BRD2(2) (BRD2(2))	Thermal shift (ΔTm obs) CREBBP (CREBBP)	Thermal shift (ΔTm obs) BRDT(2) (BRDT(2))	Thermal shift (ΔTm obs) PB1(5) (PB1(5))	Thermal shift (ΔTm obs) BRD3(1) (BRD3(1))	Thermal shift (ΔTm obs) BAZ2B (BAZ2B)	Thermal shift (ΔTm obs) BRD4(1) (BRD4(1) [6])	other results
COc1cc(OC)c2c(=O)[nH]c(-c3cc(C)c(OCCO)c(C)c3)nc2c1 [RVX-208, reference compound]	0.6	0.9	−0.4	4.0	3.4	4.0	−0.2	4.0	0.0	0.8	−0.2	1.3	stimulation of apoA-I protein production [2]: 2 fold; liver safety in human study [3]: signs of liver damage; IC50 ([4]; Homo sapiens, HT-1080, 72 h, read-out: mitochondrial membrane potential in fibrosarcoma cells, IC50, 72 hours): 50000 nM; IC50 ([4]; read-out: mitochondrial membrane potential in fibrosarcoma cells, IC50, 72 hours): 49000 nM; increase of apoA-I production ([5]; highest concentration tested (100 μM)): up to 80%
Cc1nnc2n1-c1sccc1C(c1ccccc1)=NC2(C)C [MDCO-3770]	−0.9	−1.1	1.5	5.3	2.5	0.0	−0.6	0.3	−0.5	−0.2	−0.4	3.3	ATP level in human hepatocytes [7]: no effect at 100 μM (n = 3); competition with labeled PAF [8]: only weakly displaced; TΔS (BRD4(1) [9]; BRD4(1), 15°C): 0.01 kcal/mol; ΔG (BRD4(1) [9]; BRD4(1), 15°C): -6.71 kcal/mol; ΔH obs (BRD4(1) [9]; BRD4(1), 15°C): -6.71 ± 0.103 kcal/mol; N (BRD4(1) [9]; BRD4(1), 15°C, single binding site model): 0.99 ± 0.011; Kd (BRD4(1) [9]; KD, BRD4(1), 15°C, reverse titration): 2060 ± 141 nM; Kd (BRD4(1) [9]; binding affinity, first bromodomain in BRD4, rounded in text): 2000 nM; competition with labeled flunitrazepam (central BZD receptor): did not compete; inhibition of binding of acetylated histone H4 peptide to BRD3 domains (recombinant BRD3 domains): clearly more potent than the other 2 thieno-TZDs; TΔS (BRD3(2) [10]; BRD3(2), 15°C): 0.04 kcal/mol; ΔH obs (BRD3(2) [10]; BRD3(2), 15°C): -4.62 ± 0.042 kcal/mol; N (BRD3(2) [10]; BRD3(2), 15°C, single binding site model): 1.02 ± 0.006; Kd (BRD3(2) [10]; KD, BRD3(2), 15°C, reverse titration): 513 ± 40.5 nM; Kd (BRD3(2) [10]; binding affinity, second bromodomain in BRD3, rounded in text): 500 nM; mitochondrial membrane potential in fibrosarcoma cells ([4]; 100 μM, 72 hours, result in words): no effect at 100 μM (n = 5); stimulation of apoA-I production ([5]; 72 hours, maximal stimulation): up to 3 fold; inhibition of binding of acetylated histone H4 peptide to BRD4 domains (recombinant BRD4 domains): clearly more potent than the other 2 thieno-TZDs; remaining at 2 h, 10 μM [11]: 97%
